Reference: publication PMC4949556, “Subtle Structural Differences Trigger Inhibitory Activity of Propafenone Analogues at the Two Polyspecific ABC Transporters: P‐Glycoprotein (P‐gp) and Breast Cancer Resistance Protein (BCRP)” (Chemmedchem, 2016)

Assays:
Format in all cases: cell-based
BCRP = molecular target: T1, BCRP (Homo sapiens, UniProt Q9UNQ0); experiment: BCRP inhibition: steady-state mitoxantrone accumulation in BCRP-expressing PLB985 cells (flow cytometry)
T1 construct: expressed in transfected cells; host or cells: PLB985 human myeloid leukemia cells stably expressing BCRP (gift of B. Sarkadi and K. Nemet, Budapest)
Protocol: (§1) P‐gp and BCRP inhibitory activity was assessed by implementing an intracellular accumulation assay of daunorubicin or mitoxantrone in cells overexpressing P‐gp or BCRP, respectively. In a first run, the effect of compounds 5, 6, 10, 11, and 16 (Figure 2) at 100 μM final concentration was tested (Figure 3). All compounds showing an inhibitory effect of more than 50 % compared with full inhibition by the known inhibitors of P‐gp (verapamil) and BCRP (Ko143) were further processed, and IC50 values were determined (IC50 curves and Hill coefficients are available in Figure S1 and Table S3 in the Supporting Information). […] For P‐gp, nine compounds were classified as inhibitors (5 a, 5 b, 6 a, 10 a, 10 b, 11 b, 16 a, 16 b, 16 c).
(§2) Cell culture: The human myeloid leukemia PLB985 parental and stably expressing BCRP cell lines31 were kindly provided by B. Sarkadi (Institute of Enzymology, Research Centre for Natural Sciences, Budapest, Hungary) and K. Nemet (Creative Cell Ltd., Budapest, Hungary). Both cell lines were cultured in RPMI 1640 supplemented with 10 % FBS and 100 IU mL^−1 of penicillin and streptomycin. The human T‐lymphoblast cell line CCRF VCR1000, overexpressing P‐gp, was obtained by stepwise selection of CCRF‐CEM in vincristine‐containing medium32 and was kindly provided by V. Gekeler (Altana‐Pharma formerly Byk‐Gulden, Konstanz, Germany). CCRF VCR1000 cells were cultured in RPMI 1640 medium containing 20 % FBS and were treated regularly with vincristine (1 μg mL^−1) for about 72 h, followed by centrifugation (300 g, 5 min, RT) and resuspension in normal culture medium. All cell lines were maintained at 37 °C in an atmosphere containing 5 % CO2 with 95 % relative humidity.
(§3) Steady‐state accumulation experiments: For BCRP and P‐gp inhibition studies, the steady‐state accumulation of mitoxantrone (7 μM) and daunorubicin (3 μM), respectively, was performed as previously described.33 Briefly, cells were harvested, pelleted (300 g, 5 min, 4 °C), diluted to a concentration of 12×10^6 cells mL^−1 in HPMI (10 mM Hepes, 120 mM NaCl, 5 mM KCl, 0.4 mM MgCl2, 0.04 mM CaCl2, 10 mM glucose, 10 mM NaHCO3, 5 mM Na2HPO4, pH 7.4 with NaOH) and kept on ice for further processing. For each data point, the cell suspension (25 μL) was preincubated for 5 min at 37 °C with 2 % DMSO (25 μL) in HPMI alone (DMSO control) or containing different concentrations of test compound solutions. Thereafter, cells were preloaded with daunorubicin (50 μL) or mitoxantrone (50 μL) for 30 or 20 min at 37 °C, respectively, to reach a final concentration of 3 or 7 μM, respectively. […] Preloading was stopped by chilling cells on ice for 5 min followed by the addition of 400 μL ice‐cold PBS. Cells were pelleted (300 g, 5 min, 4 °C), the supernatant was discarded, and the cell pellet was resuspended in ice‐cold PBS (150 μL). Until measurement, cells were kept on ice and in the dark. Immediately before cell fluorescence measurement by flow cytometry (BD Accuri C6 and BD FACSCalibur, Becton Dickinson, San Jose, CA, USA; MACSQuant, MiltenyiBiotec GmbH, BergischGladbach, Germany), 50 μL of 4′,6‐diamidin‐2‐phenylindole solution (DAPI, 4 μg mL^−1 in PBS) was added to gate out dead cells. 100 μM verapamil and 1 μM Ko143 were used as positive controls for P‐gp and BCRP inhibition, respectively. […]

P-gp / BCRP = molecular target: T2, P-gp / BCRP (Homo sapiens, UniProt Q9UNQ0); experiment: as above; settings: human, pH 7.4, probe daunorubicin (3 µM) for P-gp; mitoxantrone (7 µM) for BCRP; IC50 P-gp / IC50 BCRP; read-out: selectivity index (SI) P-gp/BCRP
T2 construct: expressed in transfected cells; host or cells: PLB985 human myeloid leukemia cells stably expressing BCRP (gift of B. Sarkadi and K. Nemet, Budapest)
Protocol: as §1, §2, §3

P-gp = molecular target: T3, P-gp (Homo sapiens, UniProt P08183); experiment: P-gp inhibition: steady-state daunorubicin accumulation in P-gp-overexpressing CCRF VCR1000 cells (flow cytometry)
T3 construct: was obtained by stepwise selection of CCRF‐CEM in vincristine‐containing medium; endogenous in cells; host or cells: CCRF VCR1000 (vincristine-selected subline of CCRF-CEM human T-lymphoblasts; gift of V. Gekeler)
Protocol: as §1, §2, §3

[1] = Hill coefficient of IC50 measurement, mean ± SD of n experiments
[2] = IC50 below 10 μM considered active

T1 sequence (Q9UNQ0 whole entry): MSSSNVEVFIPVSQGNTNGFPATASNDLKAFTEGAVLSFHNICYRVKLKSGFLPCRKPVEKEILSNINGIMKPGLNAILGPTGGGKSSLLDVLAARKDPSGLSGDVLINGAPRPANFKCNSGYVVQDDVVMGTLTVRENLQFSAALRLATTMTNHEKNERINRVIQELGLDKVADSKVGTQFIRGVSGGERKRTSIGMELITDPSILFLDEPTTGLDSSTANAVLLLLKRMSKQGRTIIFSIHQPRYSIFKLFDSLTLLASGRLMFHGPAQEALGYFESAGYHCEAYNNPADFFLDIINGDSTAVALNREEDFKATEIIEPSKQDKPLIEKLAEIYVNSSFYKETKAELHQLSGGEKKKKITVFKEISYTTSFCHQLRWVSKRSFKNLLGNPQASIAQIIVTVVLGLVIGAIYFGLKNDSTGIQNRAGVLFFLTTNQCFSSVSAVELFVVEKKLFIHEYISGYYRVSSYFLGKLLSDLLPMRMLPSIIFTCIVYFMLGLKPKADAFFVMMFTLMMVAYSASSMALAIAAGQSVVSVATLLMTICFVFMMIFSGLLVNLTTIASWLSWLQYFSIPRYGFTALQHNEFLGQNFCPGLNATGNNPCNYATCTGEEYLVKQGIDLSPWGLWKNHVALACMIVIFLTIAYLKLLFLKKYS
T3 sequence (P08183 whole entry): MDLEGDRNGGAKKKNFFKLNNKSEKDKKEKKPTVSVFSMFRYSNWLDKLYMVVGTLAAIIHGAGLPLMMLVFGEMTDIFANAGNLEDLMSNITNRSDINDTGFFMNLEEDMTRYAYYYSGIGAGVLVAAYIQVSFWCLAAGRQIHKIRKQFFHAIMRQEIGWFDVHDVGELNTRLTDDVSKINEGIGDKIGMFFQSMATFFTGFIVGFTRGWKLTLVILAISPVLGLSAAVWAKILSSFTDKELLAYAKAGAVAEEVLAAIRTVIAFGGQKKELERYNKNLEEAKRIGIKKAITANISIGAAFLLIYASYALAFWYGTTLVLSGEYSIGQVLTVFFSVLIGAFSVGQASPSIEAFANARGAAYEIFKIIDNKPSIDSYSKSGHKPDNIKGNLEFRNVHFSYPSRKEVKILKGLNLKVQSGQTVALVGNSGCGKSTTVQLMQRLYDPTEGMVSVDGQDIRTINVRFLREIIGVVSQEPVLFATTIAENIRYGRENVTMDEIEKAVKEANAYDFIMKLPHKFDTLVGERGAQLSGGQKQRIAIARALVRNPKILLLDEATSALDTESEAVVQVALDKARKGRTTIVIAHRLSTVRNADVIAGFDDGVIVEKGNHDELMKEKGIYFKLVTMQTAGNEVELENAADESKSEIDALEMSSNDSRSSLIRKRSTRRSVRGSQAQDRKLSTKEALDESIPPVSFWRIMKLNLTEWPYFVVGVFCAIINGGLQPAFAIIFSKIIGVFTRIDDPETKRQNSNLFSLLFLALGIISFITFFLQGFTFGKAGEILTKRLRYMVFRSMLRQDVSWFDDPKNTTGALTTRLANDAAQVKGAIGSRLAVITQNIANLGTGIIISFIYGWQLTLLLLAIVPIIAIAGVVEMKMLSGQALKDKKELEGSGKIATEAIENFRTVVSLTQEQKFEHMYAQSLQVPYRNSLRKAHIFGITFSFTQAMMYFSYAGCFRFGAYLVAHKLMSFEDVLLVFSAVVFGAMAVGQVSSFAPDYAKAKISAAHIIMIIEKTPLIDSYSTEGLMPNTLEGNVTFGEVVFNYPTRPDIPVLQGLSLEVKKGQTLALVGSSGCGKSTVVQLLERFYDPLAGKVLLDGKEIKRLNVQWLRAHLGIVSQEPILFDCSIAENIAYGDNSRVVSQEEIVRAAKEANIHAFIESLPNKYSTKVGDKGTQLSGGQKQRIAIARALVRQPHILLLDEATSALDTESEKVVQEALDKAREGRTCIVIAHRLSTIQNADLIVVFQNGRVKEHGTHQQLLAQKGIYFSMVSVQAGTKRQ
T2 sequence (Q9UNQ0 whole entry): as the sequence (Q9UNQ0 whole entry) above

COc1ccc(C(=O)CCc2ccccc2)c(OCCN2CC(=O)N3CCCC3C2=O)c1 (centres unmarked) [Compound 11 b, 2‐(2‐(5‐Methoxy‐2‐(3‐phenylpropanoyl)phenoxy)ethyl)‐hexahydropyrrolo[1,2‐a]pyrazine‐1,4‐dione]
IC50 (BCRP; BCRP IC50, mitoxantrone 7 μM, PLB985 BCRP cells, mean±SD, at least n=3 (11 a n=2)): 2.3 µM
Hill coefficient BCRP (BCRP; [1]): 1.1±0.2
in vitro classification as BCRP inhibitor (BCRP; [2]): inhibitors
fold lower IC50 value for BCRP than for P-gp (BCRP; ratio IC50 P-gp / IC50 BCRP): 2.7 fold
selectivity ratio (P-gp / BCRP): 2.7
Hill coefficient P-gp (P-gp; [1]): 1.5±0.1
in vitro classification as P-gp inhibitor (P-gp; [2]): inhibitors
IC50 (P-gp; daunorubicin 3 μM, CCRF VCR1000 cells, mean±SD, at least n=3): 6.2 ± 0.4 µM
